test system: CTL clone 2; test: T cell recognition (GM-CSF release) of peptide-pulsed EBV B cells by CTL clone 2; assay type: cell-based, human; details: peptide pulsed onto 1510EBV or 586EBV B cells
Description: FIGS. 7A–7C. An alternative open reading frame of the NY-ESO-1 gene and antigenic peptides recognized by CTL. FIG. 7A. Identification of antigenic peptides from the ORF2. Thirty peptides were synthesized based on all potential ORFs and screened. Representative data are shown here. Seven peptides derived from ORF2 (see FIG. 3A) were pulsed on HLA-A31 positive 1510EBV B cells and tested for T cell recognition based on GM-CSF release ([…], SEQ ID NO: 123; […], SEQ ID NO: 124; […], SEQ ID NO: 125; […], SEQ ID NO: 46; […], SEQ ID NO: 47; […], SEQ ID NO: 126; and […], SEQ ID NO: 127). 1510 EBV alone was used as a negative control. FIG. 7B. 1510EBV B cells were labeled with chromium for 2 h. The ESORF2-10-18 peptide was then pulsed on the chromium-labeled […] (solid square) and HLA-A31-negative 1102EBV (open circle) at different concentrations. 1510EBV pulsed with ESO10-53, which was recognized by CTL clone 5, was used for the specificity control (solid triangle). After peptide incubation and three washes, cytolysis of target cells by CTL-clone 2 was determined in a 4-h chromium release assay at an E:T ratio of 20:1. FIG. 7C. Several tumor lines and fresh breast tumors were tested for recognition by CTL clone 2 to determine whether the ORF2 is translated in different tumors. 1510EBV B cells pulsed with […] (SEQ ID NO: 25) (ESO10-53), […] (SEQ ID NO: 47) (ORF2-10-18), or alone were included to evaluate the reactivity and specificity of CTL clone 2 and 5. Expression of HLA-A31 on the tumor cells is indicated.
DNA transfection and GM-CSF assay were done as previously described (Wang, R. F., P. F. Robbins, Y. Kawakami, X. Q. Kang, and S. A. Rosenberg, 1995, J. Exp. Med. 181:799–804). Briefly, […] of DNA carrying a different fragment and 50 ng of the HLA-A31 DNA were mixed with 2 μl of lipofectamine in 100 μl of serum-free DMEM for 15–45 min. The DNA/lipofectamine mixture was then added to the COS-7 (5×10^4) cells and incubated overnight. The following day, cells were washed twice with DMEM medium. TIL586, CTL clone 5 or CTL clone 10 were added at a concentration of 5×10^4 cells/well in AIM-V medium containing 120 IU/ml of IL-2. After 18–24 h incubation, 100 μl of supernatant was collected and GM-CSF was measured in a standard ELISA assay (R+D Systems, Minneapolis, Minn.). […]
CTL clone 5 and TIL1244 were used for the specificity controls. […] To test the hypothesis that CTL may recognize a peptide from a gene product translated from an alternative open reading frame of the same gene, synthetic peptides were made with HLA-A31 Binding motif on the basis of amino acid sequence predicted from the second open reading frames (ORF2) (FIG. 3A). […]

Sequence	Recognition by CTL clone 2, in words
AAQERRVPR (listed as Homo sapiens) [ESORF2-9-19]	recognized

test system: CTL clone 5; test: GM-CSF release by CTL clone 5 on peptide-pulsed EBV B cells; assay type: cell-based, human; details: 586EBV cells, peptide 0.1 μg/ml for 90 min, 5 × 10^4 CTL clone 5
Protocol: DNA transfection and GM-CSF assay were done as previously described (Wang, R. F., P. F. Robbins, Y. Kawakami, X. Q. Kang, and S. A. Rosenberg, 1995, J. Exp. Med. 181:799–804). Briefly, […] of DNA carrying a different fragment and 50 ng of the HLA-A31 DNA were mixed with 2 μl of lipofectamine in 100 μl of serum-free DMEM for 15–45 min. The DNA/lipofectamine mixture was then added to the COS-7 (5×10^4) cells and incubated overnight. The following day, cells were washed twice with DMEM medium. TIL586, CTL clone 5 or CTL clone 10 were added at a concentration of 5×10^4 cells/well in AIM-V medium containing 120 IU/ml of IL-2. After 18–24 h incubation, 100 μl of supernatant was collected and GM-CSF was measured in a standard ELISA assay (R+D Systems, Minneapolis, Minn.). For peptides, 586EBV, 1510EBV and T2 cells were incubated with peptides at 37° C. for 90 min, and then washed three times with AIM-V medium containing 120 IU/ml of IL-2. T cells were added and incubated for additional 18–24 h, 100 μl of supernatant was collected for GM-CSF assay. In some experiments, IFN-γ release assays were done using a standard ELISA kit (Endogen, Woburn, Mass.).
These peptides were pulsed onto HLA-A31-positive 1510EBV B cells and tested for their ability to stimulate cytokine release by CTL clone 5. […] CTL clone 10 recognized the same peptide as CTL clone 5 (data not shown). […] The reactivity of CTL clone 5 was undetectable when either the ESO9-54 or the ESO10-127 peptides were used at concentrations below 100 nM to sensitize EBV cells.

Sequence	GM-CSF release by CTL clone 5, EXPT. 2 (586EBV)
AAGPGGGAPR (listed as Homo sapiens)	676 (SEQ. ID NO: 34)
AARASGPGGGAPR (listed as Homo sapiens)	738 (SEQ. ID NO: 28)
AGAARASGPGGGAPR (listed as Homo sapiens)	532 (SEQ. ID NO: 26)
AIGPGGGAPR (listed as Homo sapiens)	550 (SEQ. ID NO: 35)
ALGPGGGAPR (listed as Homo sapiens)	378 (SEQ. ID NO: 36)
ARASGPGGGAPR (listed as Homo sapiens)	738 (SEQ. ID NO: 29)
ASGPGGGAPH (listed as Homo sapiens)	<50 (SEQ. ID NO: 40)
ASGPGGGAPK (listed as Homo sapiens)	<50 (SEQ. ID NO: 39)
ASGPGGGAPRG (listed as Homo sapiens)	<50 (SEQ. ID NO: 32)
ATGPGGGAPR (listed as Homo sapiens)	1158 (SEQ. ID NO: 38)
AVGPGGGAPR (listed as Homo sapiens)	512 (SEQ. ID NO: 37)
GAARASGPGGGAPR (listed as Homo sapiens)	678 (SEQ. ID NO: 27)
GPGGGAPR (listed as Homo sapiens)	<50 (SEQ. ID NO: 31)
LSGPGGGAPR (listed as Homo sapiens)	<50 (SEQ. ID NO: 43)
RASGPGGGAPR (listed as Homo sapiens)	708 (SEQ. ID NO: 30)
RSGPGGGAPR (listed as Homo sapiens)	<50 (SEQ. ID NO: 44)
SGPGGGAPR (listed as Homo sapiens) [ESO9-54]	<50 (SEQ. ID NO: 14)
SGPGGGAPRG (listed as Homo sapiens)	<50 (SEQ. ID NO: 33)
TSGPGGGAPR (listed as Homo sapiens)	346 (SEQ. ID NO: 41)
VSGPGGGAPR (listed as Homo sapiens)	666 (SEQ. ID NO: 42)

same assay, conditions: 1510EBV cells incubated with peptide at 0.1 μg/ml for 90 min

Sequence	CTL clone 5 GM-CSF release
AASGLNGCCR (listed as Homo sapiens) [ESO10-68]	<50 (SEQ. ID NO: 21) pg/ml
AQPPSGQRR (listed as Homo sapiens) [ESO9-90]	<50 (SEQ. ID NO: 6) pg/ml
ATPMEAELAR (listed as Homo sapiens) [ESO10-97]	<50 (SEQ. ID NO: 17) pg/ml
FLAQPPSGQR (listed as Homo sapiens) [ESO10-170]	<50 (SEQ. ID NO: 18) pg/ml
GATGGRGPR (listed as Homo sapiens) [ESO9-38]	<50 (SEQ. ID NO: 9) pg/ml
GPRGAGAAR (listed as Homo sapiens) [ESO9-45]	<50 (SEQ. ID NO: 10) pg/ml
IRLTAADHR (listed as Homo sapiens) [ESO9-35]	<50 (SEQ. ID NO: 13) pg/ml
LAQPPSGQR (listed as Homo sapiens) [ESO9-89]	<50 (SEQ. ID NO: 11) pg/ml
LAQPPSGQRR (listed as Homo sapiens) [ESO10-171]	<50 (SEQ. ID NO: 22) pg/ml
LNGCCRCGAR (listed as Homo sapiens) [ESO10-72]	<50 (SEQ. ID NO: 24) pg/ml
PMEAELARR [ESO9-99]	<50 (SEQ. ID NO: 8) pg/ml
RCGARGPESR (listed as Homo sapiens) [ESO10-77]	<50 (SEQ. ID NO: 20) pg/ml
RGPRGAGAAR (listed as Homo sapiens) [ESO10-44]	<50 (SEQ. ID NO: 23) pg/ml
SGPGGGAPR (listed as Homo sapiens) [ESO9-54]	304 (SEQ. ID NO: 14) pg/ml
TIRLTAADHR (listed as Homo sapiens) [ESO10-34]	<50 (SEQ. ID NO: 16) pg/ml
TPMEAELAR (listed as Homo sapiens) [ESO9-98]	<50 (SEQ. ID NO: 7) pg/ml
TPMEAELARR (listed as Homo sapiens) [ESO10-98]	<50 (SEQ. ID NO: 19) pg/ml

same assay, conditions: 1510EBV cells, peptide 0.1 μg/ml for 90 min, 5 × 10^4 CTL clone 5

Sequence	GM-CSF release by CTL clone 5, EXPT. 1 (1510EBV)
AAGPGGGAPR (listed as Homo sapiens)	688
AARASGPGGGAPR (listed as Homo sapiens)	844
AGAARASGPGGGAPR (listed as Homo sapiens)	728
AIGPGGGAPR (listed as Homo sapiens)	428
ALGPGGGAPR (listed as Homo sapiens)	200
ARASGPGGGAPR (listed as Homo sapiens)	840
ASGPGGGAPH (listed as Homo sapiens)	<50
ASGPGGGAPK (listed as Homo sapiens)	<50
ASGPGGGAPRG (listed as Homo sapiens)	<50
ATGPGGGAPR (listed as Homo sapiens)	1630
AVGPGGGAPR (listed as Homo sapiens)	556
GAARASGPGGGAPR (listed as Homo sapiens)	659
GPGGGAPR (listed as Homo sapiens)	<50
LSGPGGGAPR (listed as Homo sapiens)	<50
RASGPGGGAPR (listed as Homo sapiens)	851
RSGPGGGAPR (listed as Homo sapiens)	<50
SGPGGGAPR (listed as Homo sapiens) [ESO9-54]	<50
SGPGGGAPRG (listed as Homo sapiens)	<50
TSGPGGGAPR (listed as Homo sapiens)	320
VSGPGGGAPR (listed as Homo sapiens)	825

same assay, conditions: peptide pulsed onto HLA-A31-positive 1510EBV or 586EBV B cells

Sequence	Recognition by CTL clone 5 (cytokine release), in words
SGPGGGAPR (listed as Homo sapiens) [ESO9-54]	weakly recognized

— US7084239B1, “Cancer peptides of NY-ESO-1/CAG-3” (The United States of America as represented by the …, priority 1997, dated 2006)
